The target in test [1] is T1, human PI3Kα protein (Homo sapiens, UniProt P42336).
T1 construct: purchased Carna Biosciences, Inc; host or cells: baculovirus expression system
Briefly: PI3Kα enzyme assay (ADP-Glo). To be noted: read-out: PI3Kα enzyme inhibitory activity. The test is classed as biochemical. The essentials:
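Biotinylated human PI3Kα (baculovirus-expressed, 4.5 nmol/L) pre-incubated 15 min with compound in Tris-HCl pH 7.5, MgCl2, BSA; reaction 60 min at 25° C with 50 μmol/L PIP2 and 100 μmol/L ATP final. ADP quantified by ADP-Glo luminescence; IC50 calculated.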
For orientation: In ADP-Glo the light output rises with the ADP produced.

Test [2] concerns the target T2, GST fusion human ERK2 protein (Homo sapiens, UniProt P28482).
T2 construct: purchased Carna Biosciences, Inc; host or cells: E. coli expression system
Kind of test: ERK2 enzyme assay (2). The test is classed as biochemical. To be noted: ERK2 enzyme assay (2); read-out: ERK2 enzyme inhibitory activity (2). In short, it runs like this: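 IC50 values come from mobility-shift measurement of phosphorylated versus unphosphorylated 5-FAM peptide substrate after EDTA quench. Beforehand, compound and 1.25 nmol/L E. coli-expressed GST–human ERK2 stood 15 min at room temperature (pH 7.5), then 1 mmol/L ATP and 4.25 μmol/L substrate (final) were added for 120 min at 25 °C.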

For 38 molecules, IC50 results are on record in patent US9783536B2, “Nitrogen-containing heterocyclic compound or salt thereof” (FUJIFILM Corporation, priority 2013, dated 2017).

T1 sequence (P42336 whole entry): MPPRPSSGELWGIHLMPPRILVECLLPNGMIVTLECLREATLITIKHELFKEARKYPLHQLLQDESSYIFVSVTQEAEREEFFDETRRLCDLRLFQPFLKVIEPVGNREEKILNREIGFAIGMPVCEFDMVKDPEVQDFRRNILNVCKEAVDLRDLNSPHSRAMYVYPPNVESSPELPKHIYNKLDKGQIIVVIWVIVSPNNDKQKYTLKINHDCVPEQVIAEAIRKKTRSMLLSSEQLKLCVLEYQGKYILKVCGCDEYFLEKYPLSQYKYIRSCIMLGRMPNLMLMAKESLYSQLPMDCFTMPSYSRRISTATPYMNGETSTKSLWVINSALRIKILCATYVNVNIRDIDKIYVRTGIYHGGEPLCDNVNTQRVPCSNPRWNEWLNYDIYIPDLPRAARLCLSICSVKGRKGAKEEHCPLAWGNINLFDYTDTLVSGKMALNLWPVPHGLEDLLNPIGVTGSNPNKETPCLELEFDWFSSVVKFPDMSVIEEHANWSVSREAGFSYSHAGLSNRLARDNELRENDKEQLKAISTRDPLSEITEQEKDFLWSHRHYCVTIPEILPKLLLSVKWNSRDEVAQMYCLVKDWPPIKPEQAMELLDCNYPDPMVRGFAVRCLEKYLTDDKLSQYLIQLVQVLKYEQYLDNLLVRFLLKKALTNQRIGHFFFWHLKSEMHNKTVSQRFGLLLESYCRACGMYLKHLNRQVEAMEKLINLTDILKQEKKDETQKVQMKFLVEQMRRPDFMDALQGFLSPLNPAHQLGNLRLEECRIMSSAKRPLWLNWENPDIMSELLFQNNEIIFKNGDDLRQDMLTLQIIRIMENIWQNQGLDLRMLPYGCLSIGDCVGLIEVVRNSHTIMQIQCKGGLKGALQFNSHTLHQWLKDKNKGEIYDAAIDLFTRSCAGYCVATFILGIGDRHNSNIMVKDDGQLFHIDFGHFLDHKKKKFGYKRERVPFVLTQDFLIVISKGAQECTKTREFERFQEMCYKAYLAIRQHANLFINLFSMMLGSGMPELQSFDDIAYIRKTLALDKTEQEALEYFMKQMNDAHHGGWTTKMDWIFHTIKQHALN
T1 sequence (P27986 whole entry partner): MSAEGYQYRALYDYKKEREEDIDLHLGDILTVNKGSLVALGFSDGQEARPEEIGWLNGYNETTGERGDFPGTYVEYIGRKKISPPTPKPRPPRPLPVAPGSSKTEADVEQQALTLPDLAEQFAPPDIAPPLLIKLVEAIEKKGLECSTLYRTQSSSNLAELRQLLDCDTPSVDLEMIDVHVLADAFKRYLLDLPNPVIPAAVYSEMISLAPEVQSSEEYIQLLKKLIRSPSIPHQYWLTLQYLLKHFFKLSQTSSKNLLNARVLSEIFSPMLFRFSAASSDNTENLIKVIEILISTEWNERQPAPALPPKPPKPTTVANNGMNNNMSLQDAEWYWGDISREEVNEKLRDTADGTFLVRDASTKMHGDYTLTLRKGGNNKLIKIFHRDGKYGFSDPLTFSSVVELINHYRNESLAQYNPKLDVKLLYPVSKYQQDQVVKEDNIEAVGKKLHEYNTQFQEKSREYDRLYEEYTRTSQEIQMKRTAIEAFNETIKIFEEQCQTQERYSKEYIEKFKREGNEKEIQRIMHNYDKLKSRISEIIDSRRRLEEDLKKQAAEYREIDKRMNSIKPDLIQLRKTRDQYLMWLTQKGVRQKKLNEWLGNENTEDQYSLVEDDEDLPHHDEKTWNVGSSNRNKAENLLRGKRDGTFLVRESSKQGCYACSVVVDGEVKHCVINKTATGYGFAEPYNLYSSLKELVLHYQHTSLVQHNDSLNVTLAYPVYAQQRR
T2 sequence (P28482 whole entry, the tested form may be a part): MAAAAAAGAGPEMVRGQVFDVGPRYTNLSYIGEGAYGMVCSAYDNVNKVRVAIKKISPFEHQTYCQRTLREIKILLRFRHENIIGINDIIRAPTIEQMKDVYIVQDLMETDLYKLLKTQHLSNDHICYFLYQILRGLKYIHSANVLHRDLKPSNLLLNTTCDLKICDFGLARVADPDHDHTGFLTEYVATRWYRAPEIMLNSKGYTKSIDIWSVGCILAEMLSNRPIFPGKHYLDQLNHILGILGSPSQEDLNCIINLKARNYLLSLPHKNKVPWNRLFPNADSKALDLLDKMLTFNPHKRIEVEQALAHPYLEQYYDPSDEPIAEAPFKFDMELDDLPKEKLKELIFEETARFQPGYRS

For `CC(C)c1cnnc(Nc2ccc3ncc(-c4cn(C)nc4-c4ccc(OCCN(C)C)cc4)cc3n2)c1` [Example 0774], the IC50 in test [1] and in test [2] was less than 1 µM each time.

For `CC(C)c1cnnc(Nc2ccc3ncc(-c4cn(C)nc4-c4ccc(OCC(=O)N(C)C)cc4)cc3n2)c1` [Example 0777, 2-(4-(4-(6-((5-Isopropylpyridazin-3-yl)amino)-1,5-naphthyridin-3-yl)-1-methyl-1H-pyrazol-3-yl)phenoxy)-N,N-dimethylacetamide], the IC50 in test [1] and in test [2] was less than 1 µM each time.

Turning to `CC(C)c1cnnc(Nc2ccc3ncc(-c4cn(C)nc4-c4ccc(OCCN5CCCCC5)cc4)cc3n2)c1` [Example 0778], the IC50 in test [1] and in test [2] was less than 1 µM throughout.

With `CC(C)c1cnnc(Nc2ccc3ncc(-c4cn(C)nc4C4CN(C(=O)OC(C)(C)C)C4)cc3n2)c1` [Example 0779, tert-butyl 3-(4-(6-((5-isopropylpyridazin-3-yl)amino)-1,5-naphthyridin-3-yl)-1-methyl-1H-pyrazol-3-yl)azetidine-1-carboxylate], the IC50 in test [1] and in test [2] was less than 1 µM each time.

For the molecule `CC(C)c1cnnc(Nc2ccc3ncc(-c4cn(C)nc4C4CNC4)cc3n2)c1` [Example 0780, 7-(3-(azetidin-3-yl)-1-methyl-1H-pyrazol-4-yl)-N-(5-isopropylpyridazin-3-yl)-1,5-naphthyridine-2-amine], the IC50 in test [1] and in test [2] was less than 1 µM throughout.

With `Cn1cc(-c2cnc3ccc(Nc4cc(C(C)(C)O)cnn4)nc3c2)c(-c2ccncc2)n1` [Example 0782], the IC50 in test [1] and in test [2] was less than 1 µM in each case.

For `CC(C)(O)c1cnnc(Nc2ccc3ncc(-c4cnn(CC5CCOCC5)c4)cc3n2)c1` [Example 0783], the IC50 in test [1] and in test [2] was less than 1 µM in each case.

In the case of `COCCn1cc(-c2nn(C)cc2-c2cnc3ccc(Nc4cc(C(C)C)cnn4)nc3c2)cn1` [Example 0784], the IC50 in test [1] and in test [2] was less than 1 µM throughout.

With `C=C(C)c1cnnc(Nc2ccc3ncc(-c4cn(C)nc4C)cc3n2)c1` [Example 0785], the IC50 in test [1] and in test [2] was less than 1 µM throughout.

For the molecule `COCC(C)c1cnnc(Nc2ccc3ncc(-c4cn(C)nc4C)cc3n2)c1` (stereo not shown) [Example 0786, 7-(1,3-dimethyl-1H-pyrazol-4-yl)-N-(5-(1-methoxypropan-2-yl)pyridazin-3-yl)-1,5-naphthyridine-2-amine], the IC50 in test [1] and in test [2] was less than 1 µM throughout.

`C=C(C)c1cnnc(Nc2ccc3ncc(-c4cnn(C)c4)cc3n2)c1` [Example 0787, 7-(1-Methyl-1H-pyrazol-4-yl)-N-(5-(prop-1-en-2-yl)pyridazin-3-yl)-1,5-naphthyridine-2-amine]: the IC50 in test [1] and in test [2] was less than 1 µM throughout.

As to `COCC(C)c1cnnc(Nc2ccc3ncc(-c4cnn(C)c4)cc3n2)c1` (stereo not shown) [Example 0788, N-(5-(1-methoxypropan-2-yl)pyridazin-3-yl)-7-(1-methyl-1H-pyrazol-4-yl)-1,5-naphthyridine-2-amine], the IC50 in test [1] and in test [2] was less than 1 µM throughout.

Consider `Cc1nn(C)cc1-c1cnc2ccc(Nc3cc(CC4CCCCC4)cnn3)nc2c1` [Example 0789], for which the IC50 in test [1] and in test [2] was less than 1 µM in each case.

With `Cc1nn(C)cc1-c1cnc2ccc(Nc3cc(CC(C)C)cnn3)nc2c1` [Example 0790], the IC50 in test [1] and in test [2] was less than 1 µM in each case.

Regarding `Cc1nn(C)cc1-c1cnc2ccc(Nc3cc(C4CCC4)cnn3)nc2c1` [Example 0791], the IC50 in test [1] and in test [2] was less than 1 µM throughout.

As for `COC(=O)c1ccc(Cn2cc(-c3cnc4ccc(Nc5cc(C(C)C)cnn5)nc4c3)cn2)cc1` [Example 0792], the IC50 in test [1] and in test [2] was less than 1 µM in each case.

For the molecule `CC(C)c1cnnc(Nc2ccc3ncc(-c4cn(C)nc4-c4ccc(N(C)C)nc4)cc3n2)c1` [Example 0793], the IC50 in test [1] is less than 1 µM; in test [2], 1 to 10 µM.

On to `COC1(C)CN(CCCn2cc(-c3cnc4ccc(Nc5cc(C(C)C)cnn5)nc4c3)cn2)C1` [Example 0794, N-(5-isopropylpyridazin-3-yl)-7-(1-(3-(3-methoxy-3-methylazetidin-1-yl)propyl)-1H-pyrazol-4-yl)-1,5-naphthyridine-2-amine], for which the IC50 in test [1] and in test [2] was less than 1 µM each time.

As to `COC1CN(CCCn2cc(-c3cnc4ccc(Nc5cc(C(C)C)cnn5)nc4c3)c(C)n2)C1` [Example 0796, N-(5-isopropylpyridazin-3-yl)-7-(1-(3-(3-methoxyazetidin-1-yl)propyl)-3-methyl-1H-pyrazol-4-yl)-1,5-naphthyridine-2-amine], the IC50 in test [1] and in test [2] was less than 1 µM throughout.

With `COC1(C)CN(CCCn2cc(-c3cnc4ccc(Nc5cc(C(C)C)cnn5)nc4c3)c(C)n2)C1` [Example 0797], the IC50 in test [1] and in test [2] was less than 1 µM in each case.

Consider `CC(C)c1cnnc(Nc2ccc3ncc(-c4cn(C)nc4Nc4ccncc4)cc3n2)c1` [Example 0798], for which the IC50 in test [1] and in test [2] was less than 1 µM in each case.

Take `CC(C)c1cnnc(Nc2ccc3ncc(-c4cn(C)nc4COc4cccnc4)cc3n2)c1` [Example 0799, N-(5-isopropylpyridazin-3-yl)-7-(1-methyl-3-((pyridin-3-yloxy)methyl)-1H-pyrazol-4-yl)-1,5-naphthyridine-2-amine]: the IC50 in test [1] and in test [2] was less than 1 µM each time.

Regarding `Cc1nn(CCCO)cc1-c1cnc2ccc(Nc3cc(C(C)C)cnn3)nc2c1` [Example 0800, 3-(4-(6-((5-Isopropylpyridazin-3-yl)amino)-1,5-naphthyridin-3-yl)-3-methyl-1H-pyrazol-1-yl)propan-1-ol], the IC50 in test [1] and in test [2] was less than 1 µM each time.

With `CC(C)c1cnnc(Nc2ccc3ncc(-c4cn(C)nc4N(C)c4cccnc4)cc3n2)c1` [Example 0802], the IC50 in test [1] and in test [2] was less than 1 µM throughout.

On to `CC(C)c1cnnc(Nc2ccc3ncc(-c4cn(C)nc4COc4ccccc4)cc3n2)c1` [Example 0803], for which the IC50 in test [1] and in test [2] was less than 1 µM throughout.

`COc1cccc(OCc2nn(C)cc2-c2cnc3ccc(Nc4cc(C(C)C)cnn4)nc3c2)c1` [Example 0805]: the IC50 in test [1] and in test [2] was less than 1 µM in each case.

As to `COc1ccc(OCc2nn(C)cc2-c2cnc3ccc(Nc4cc(C(C)C)cnn4)nc3c2)cc1` [Example 0806], the IC50 in test [1] and in test [2] was less than 1 µM in each case.

Turning to `CC(C)c1cnnc(Nc2ccc3ncc(-c4cn(C)nc4/C=C/c4cccnc4)cc3n2)c1` [Example 0807], the IC50 in test [1] and in test [2] was less than 1 µM throughout.

`CC(C)c1cnnc(Nc2ccc3ncc(-c4cn(C)nc4CN(C)c4cccnc4)cc3n2)c1` [Example 0808]: the figures for the IC50 in test [1] and in test [2] were 1 to 10 µM and less than 1 µM, respectively.

For `CC(C)c1cnnc(Nc2ccc3ncc(-c4cn(C)nc4COc4cccc(OCCN(C)C)c4)cc3n2)c1` [Example 0809, 7-(3-((3-(2-(dimethylamino)ethoxy)phenoxy)methyl)-1-methyl-1H-pyrazol-4-yl)-N-(5-isopropylpyridazin-3-yl)-1,5-naphthyridine-2-amine], the IC50 in test [1] and in test [2] was less than 1 µM each time.

`CC(C)c1cnnc(Nc2ccc3ncc(-c4cn(C)nc4COc4cccc(OCC(=O)N(C)C)c4)cc3n2)c1` [Example 0810]: the IC50 in test [1] and in test [2] was less than 1 µM in each case.

As to `CCOC(CN1CCOCC1)Cn1cc(-c2cnc3ccc(Nc4cc(C(C)C)cnn4)nc3c2)cn1` (stereo not shown) [Example 0811], the IC50 in test [1] and in test [2] was less than 1 µM throughout.

Turning to `COC(CN1CC(OC(F)F)C1)Cn1cc(-c2cnc3ccc(Nc4cc(C(C)C)cnn4)nc3c2)cn1` (stereo not shown) [Example 0813, 7-(1-(3-(3-(Difluoromethoxy)azetidin-1-yl)-2-methoxypropyl)-1H-pyrazol-4-yl)-N-(5-isopropylpyridazin-3-yl)-1,5-naphthyridine-2-amine], the IC50 in test [1] and in test [2] was less than 1 µM each time.

Regarding `COC(CN1CC(F)(F)C1)Cn1cc(-c2cnc3ccc(Nc4cc(C(C)C)cnn4)nc3c2)cn1` (stereo not shown) [Example 0814, 7-(1-(3-(3,3-difluoroazetidin-1-yl)-2-methoxypropyl)-1H-pyrazol-4-yl)-N-(5-isopropylpyridazin-3-yl)-1,5-naphthyridine-2-amine], the IC50 in test [1] and in test [2] was less than 1 µM throughout.

Regarding `COC(CN1CC(F)C1)Cn1cc(-c2cnc3ccc(Nc4cc(C(C)C)cnn4)nc3c2)cn1` (stereo not shown) [Example 0815, 7-(1-(3-(3-Fluoroazetidin-1-yl)-2-methoxypropyl)-1H-pyrazol-4-yl)-N-(5-isopropylpyridazin-3-yl)-1,5-naphthyridine-2-amine], the IC50 in test [1] and in test [2] was less than 1 µM throughout.

Take `CCC(CC)c1cnnc(Nc2ccc3ncc(-c4cnn(CCOC5CNC5)c4)cc3n2)c1` [Example 0816]: the IC50 in test [1] and in test [2] was less than 1 µM in each case.

Turning to `c1nnc(Nc2ccc3ncc(-c4cnn(CCOC5CNC5)c4)cc3n2)cc1CC1CCCCC1` [Example 0817], the IC50 in test [1] and in test [2] was less than 1 µM in each case.

`CCC(CC)c1cnnc(Nc2ccc3ncc(-c4cnn(CCOC5CN(C(C)C)C5)c4)cc3n2)c1` [Example 0818]: the IC50 in test [1] and in test [2] was less than 1 µM in each case.
